Consider one compound from patent publication US20240150339A1, “Compounds and Their Use as PDE4 Activators” (Mironid Limited, priority 2021, published 2024).

In one assay the target is T1, PDE4D5 (Homo sapiens, UniProt Q08499).
T1 construct: Using Full-Length Human PDE4 Isoforms: Long Forms PDE4D5, PDE4C3, PDE4B1 and Short Form PDE4B2; made in house; cytosol fraction of the cell lysate, not purified
The assay is described as follows: PDE assay, activation of full-length human PDE4D5 long form ([3H]cAMP radio-assay). The format is biochemical. The note with it: 30 μM test compound; mean % increase in counts over basal activity. A digest of the protocol: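 Cytosol (100,000 g) from HEK293 cells overexpressing full-length human PDE4 was preincubated with compound for 15 min at room temperature in 10 mM Tris/5 mM MgCl2. Reaction ran with 1 μM [3H]cAMP for 10 min at 30° C, then snake venom conversion, Dowex separation and scintillation counting; activity reported as % increase.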

Assay [1] relates to PTH-induced cAMP elevation in urine. The assay is described as follows: In vivo model of hyperparathyroidism: PTH-induced cAMP elevation in urine in the anaesthetised rat. The note with it: i.v. infusion, PTH challenge, urine collected from 90 to 120 min, result in words. The text has this:
Within the kidney, the binding of parathyroid hormone (PTH) to PTH receptors results in the Gas-mediated elevation of intracellular cAMP. This increase of intracellular cAMP results in extrusion of cAMP to the urine (Yates et al., J Clin Invest 81: 932-938, 1988). This experiment is based upon a modified Ellsworth-Howard assay (Kruse, K. and Kracht, U., European Journal of Pediatrics 146: 373-377, 1987) and conducted in anaesthetized rats. In this experiment, rats were anaesthetized using isoflurane and catheterised to allow the collection of urine from the bladder. After an initial stabilization period, test compounds were administered by i.v. infusion (modelled to steady state) from time 0-120 min. PTH challenge infusion (33 ug/kg/hour) was started after 60 min of test compound infusion and sustained for one hour (60-120 min). Urine collection was conducted in 30-minute periods. Urine cAMP levels were assessed by ELISA (R&D systems). Urine samples were prepared for analysis as per the manufacturer's instructions. A standard curve for cAMP was assayed for each experiment and samples were assessed using a standard dilution range of 1:2, 1:4, 1:8 and 1:16, ensuring that the resulting data remained on the linear portion of the standard curve. […] Urine cAMP concentration remained below 50,000 pmol/mL. […]

T1 sequence (Q08499 1-745 isoform Q08499-6): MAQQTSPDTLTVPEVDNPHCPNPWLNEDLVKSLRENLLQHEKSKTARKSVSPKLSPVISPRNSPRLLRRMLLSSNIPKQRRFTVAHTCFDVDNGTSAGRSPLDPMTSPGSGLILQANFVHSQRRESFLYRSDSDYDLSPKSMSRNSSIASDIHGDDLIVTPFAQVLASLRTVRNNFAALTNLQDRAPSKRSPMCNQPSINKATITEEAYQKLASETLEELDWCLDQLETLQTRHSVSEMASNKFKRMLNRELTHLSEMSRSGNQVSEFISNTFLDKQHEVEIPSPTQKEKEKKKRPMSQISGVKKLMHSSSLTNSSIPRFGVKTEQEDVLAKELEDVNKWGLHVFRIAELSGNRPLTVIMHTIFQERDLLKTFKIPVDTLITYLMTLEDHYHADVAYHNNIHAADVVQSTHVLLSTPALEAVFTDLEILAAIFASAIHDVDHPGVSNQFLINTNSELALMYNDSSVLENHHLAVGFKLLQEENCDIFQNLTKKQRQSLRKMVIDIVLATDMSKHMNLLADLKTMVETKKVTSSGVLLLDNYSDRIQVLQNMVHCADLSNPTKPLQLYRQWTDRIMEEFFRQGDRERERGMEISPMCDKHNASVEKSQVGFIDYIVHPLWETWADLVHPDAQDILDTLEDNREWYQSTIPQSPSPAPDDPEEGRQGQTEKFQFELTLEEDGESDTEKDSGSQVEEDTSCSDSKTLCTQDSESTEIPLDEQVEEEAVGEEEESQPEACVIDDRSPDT

With `Cc1ncccc1-c1nc2ccc(C(=O)N[C@H]3CCOc4ccccc43)cc2s1` [Example 7, (S)-N-(chroman-4-yl)-2-(2-methylpyridin-3-yl)benzo[d]thiazole-6-carboxamide], the activation at 30 µM at PDE4D5 came out at 109%. Also, the “Inhibition of PTH-induced cAMP elevation in rat urine (FIG. 3)” value in assay [1] was “inhibition”.
